For the assay, the target named is T1, human autotaxin (Homo sapiens, UniProt Q13822).
T1 construct: Conditioned media is collected from confluent Hep3B cells and concentrated 20-fold; endogenous in cells; host or cells: Hep3B human hepatocellular carcinoma cells (concentrated conditioned medium)
The experiment in a line: Human Autotaxin Assay (choline release from LPC). In kind it is biochemical. The note with it: ATX in concentrated conditioned media from Hep3B cells, substrate LPC 14:0 100 uM, absorbance at 555 nm. As to the method: ATX activity is assayed in concentrated conditioned media from Hep3B human hepatocellular carcinoma cells by measuring the amount of choline released from the substrate, lysophosphatidylcholine (LPC) as it is cleaved to LPA. Conditioned media is collected from confluent Hep3B cells and concentrated 20-fold using Centriprep-30 filter devices (Millipore). To assay for autotaxin inhibition, 10-20 μL of the concentrated conditioned media is incubated with 2.5 μL of a test compound in DMSO and 72.5-82.5 μL lyso-PLD buffer (100 mM Tris pH 9, 500 mM NaCl, 5 mM MgCl2, 5 mM CaCl2, 0.05% Triton X-100 in the presence or absence of 0.2% fatty-acid-free human serum albumin) for 15 min at 37° C. After the 15 min incubation, 5 ul of 2 mM LPC (14:0; Avanti Polar Lipids Cat#855575C) diluted in lyso-PLD buffer is added for a final concentration of 100 uM and the incubation continues for 1.5-3 hours at 37° C. 100 μl of a color mix containing 4.5 mM 4-aminoantipyrine, 2.7 mM N-ethyl-N-(2-hydroxy-3-sulfopropyl)-m-toluidine, 21 units/ml horseradish peroxidase and 3 units/ml choline oxidase in 50 mM Tris, pH 8, 4.5 mM MgCl2 is added and the incubation continued for 15 minutes at room temperature before reading the absorbance at 555 nm.
One may read the IC50 as the concentration that gives 50% inhibition. `N#C/C(=C\c1cn(Cc2ccc(F)cc2)c2ccccc12)c1ccc(C(=O)O)cc1` [Compound 1-1, 4-[(Z)-1-cyano-2-[1-[(4-fluorophenyl)methyl]indol-3-yl]vinyl]benzoic Acid] yielded an IC50 of 0.5 to 10 µM.

For `N#C/C(=C\c1cn(Cc2ccc(F)cc2)c2cccc(Cl)c12)c1ccc(C(=O)O)cc1` [Compound 1-2, 4-[(Z)-1-cyano-2-[4-chloro-1-[(4-fluorophenyl)methyl]indol-3-yl]vinyl]benzoic Acid], the half-inhibitory concentration (IC50) lay in the range of 0.5 to 10 µM. In the case of `N#C/C(=C\c1cn(Cc2ccc(F)cc2)c2ccc(Cl)cc12)c1ccc(C(=O)O)cc1` [Compound 1-3, 4-[(Z)-2-[5-chloro-1-[(4-fluorophenyl)methyl]indol-3-yl]-1-cyano-vinyl]benzoic Acid] it was more than 10 µM; in that of `N#C/C(=C\c1cn(Cc2ccc(F)cc2)c2cc(Cl)ccc12)c1ccc(C(=O)O)cc1` [Compound 1-4, (Z)-4-(2-(6-chloro-1-(4-fluorobenzyl)-1H-indol-3-yl)-1-cyanovinyl)benzoic Acid], not above 0.5 µM; in that of `N#C/C(=C\c1cn(Cc2ccc(F)cc2)c2c(Cl)cccc12)c1ccc(C(=O)O)cc1` [Compound 1-5, 4-[(Z)-2-[7-chloro-1-[(4-fluorophenyl)methyl]indol-3-yl]-1-cyano-vinyl]benzoic Acid], 0.5 to 10 µM. Then `N#C/C(=C\c1cn(Cc2ccc(F)cc2)c2ccc(F)cc12)c1ccc(C(=O)O)cc1` [Compound 1-6, 4-[(Z)-1-cyano-2-[5-fluoro-1-[(4-fluorophenyl)methyl]indol-3-yl]vinyl]benzoic Acid], with 0.5 to 10 µM; and `N#C/C(=C\c1cn(Cc2ccc(F)cc2)c2cc(F)ccc12)c1ccc(C(=O)O)cc1` [Compound 1-7, 4-[(Z)-1-cyano-2-[6-fluoro-1-[(4-fluorophenyl)methyl]indol-3-yl]vinyl]benzoic Acid], with not above 0.5 µM; and `N#C/C(=C\c1cn(Cc2ccc(F)cc2)c2cc(Br)ccc12)c1ccc(C(=O)O)cc1` [Compound 1-8, 4-[(Z)-2-[6-bromo-1-[(4-fluorophenyl)methyl]indol-3-yl]-1-cyano-vinyl]benzoic Acid], with 0.5 to 10 µM. Turning to `N#C/C(=C\c1cn(Cc2ccc(F)cc2)c2cc(C(F)(F)F)ccc12)c1ccc(C(=O)O)cc1` [Compound 1-9, 4-[(Z)-1-cyano-2-[1-[(4-fluorophenyl)methyl]-6-(trifluoromethyl)indol-3-yl]vinyl]benzoic Acid], the IC50 was in the range of 0.5 to 10 µM.

`COc1ccc2c(/C=C(\C#N)c3ccc(C(=O)O)cc3)cn(Cc3ccc(F)cc3)c2c1` [Compound 1-10, 4-[(Z)-1-cyano-2-[1-[(4-fluorophenyl)methyl]-6-methoxy-indol-3-yl]vinyl]benzoic Acid] returned an IC50 not above 0.5 µM. With `N#C/C(=C\c1cn(Cc2ccc(F)cc2)c2cc(F)cc(F)c12)c1ccc(C(=O)O)cc1` [Compound 1-11, 4-[(Z)-1-cyano-2-[4,6-difluoro-1-[(4-fluorophenyl)methyl]indol-3-yl]vinyl]benzoic Acid], the IC50 was not above 0.5 µM. In the case of `CCCn1cc(-n2cc(/C=C(\C#N)c3ccc(C(=O)O)cc3)c3ccc(Cl)cc32)cn1` [Compound 1-12, 4-[(Z)-2-[6-chloro-1-(1-propylpyrazol-4-yl)indol-3-yl]-1-cyano-vinyl]benzoic Acid] it was more than 10 µM; in that of `N#C/C(=C\c1cn(Cc2ccccc2)c2cc(Cl)ccc12)c1ccc(C(=O)O)cc1` [Compound 1-13, 4-[(Z)-2-(1-benzyl-6-chloro-indol-3-yl)-1-cyano-vinyl]benzoic Acid], 0.5 to 10 µM; in that of `N#C/C(=C\c1cn(Cc2ccncc2)c2cc(Cl)ccc12)c1ccc(C(=O)O)cc1` [Compound 1-14, 4-[(Z)-2-[6-chloro-1-(4-pyridylmethyl)indol-3-yl]-1-cyano-vinyl]benzoic Acid], 0.5 to 10 µM. Then `N#C/C(=C\c1cn(Cc2cnc(C(F)(F)F)s2)c2cc(Cl)ccc12)c1ccc(C(=O)O)cc1` [Compound 1-15, 4-[(Z)-2-[6-chloro-1-[[2-(trifluoromethyl)thiazol-5-yl]methyl]indol-3-yl]-1-cyano-vinyl]benzoic Acid], with not above 0.5 µM. The compound `N#C/C(=C\c1cn(Cc2ccc(Cl)nc2)c2cc(Cl)ccc12)c1ccc(C(=O)O)cc1` [Compound 1-16, 4-[(Z)-2-[6-chloro-1-[(6-chloro-3-pyridyl)methyl]indol-3-yl]-1-cyano-vinyl]benzoic Acid] had an IC50 not above 0.5 µM. In the case of `CCOc1ncc(Cn2cc(/C=C(\C#N)c3ccc(C(=O)O)cc3)c3ccc(Cl)cc32)s1` [Compound 1-17, 4-[(Z)-2-[6-chloro-1-[(2-ethoxythiazol-5-yl)methyl]indol-3-yl]-1-cyano-vinyl]benzoic Acid] it was 0.5 to 10 µM; in that of `CCCc1noc(Cn2cc(/C=C(\C#N)c3ccc(C(=O)O)cc3)c3ccc(Cl)cc32)n1` [Compound 1-18, 4-[(Z)-2-[6-chloro-1-[(3-propyl-1,2,4-oxadiazol-5-yl)methyl]indol-3-yl]-1-cyano-vinyl]benzoic Acid], 0.5 to 10 µM.

In the case of `N#C/C(=C\c1cn(Cc2cc(Cl)cc(Cl)c2)c2cc(Cl)ccc12)c1ccc(C(=O)O)cc1` [Compound 1-19, 4-[(Z)-2-[6-chloro-1-[(3,5-dichlorophenyl)methyl]indol-3-yl]-1-cyano-vinyl]benzoic Acid], the IC50 was 0.5 to 10 µM. Turning to `N#C/C(=C\c1cn(Cc2cc(C(F)(F)F)cc(C(F)(F)F)c2)c2cc(Cl)ccc12)c1ccc(C(=O)O)cc1` [Compound 1-20, 4-[(Z)-2-[1-[[3,5-bis(trifluoromethyl)phenyl]methyl]-6-chloro-indol-3-yl]-1-cyano-vinyl]benzoic Acid], the IC50 was more than 10 µM. Then `N#C/C(=C\c1cn(Cc2ccc(C(F)(F)F)cc2)c2cc(Cl)ccc12)c1ccc(C(=O)O)cc1` [Compound 1-21, 4-[(Z)-2-[6-chloro-1-[[4-(trifluoromethyl)phenyl]methyl]indol-3-yl]-1-cyano-vinyl]benzoic Acid], with 0.5 to 10 µM; and `N#C/C(=C\c1cn(CCc2ccc(F)cc2)c2cc(Cl)ccc12)c1ccc(C(=O)O)cc1` [Compound 1-22, 4-[(Z)-2-[6-chloro-1-[2-(4-fluorophenyl)ethyl]indol-3-yl]-1-cyano-vinyl]benzoic Acid], with more than 10 µM. Then `N#C/C(=C\c1cn(CCCc2ccc(F)cc2)c2cc(Cl)ccc12)c1ccc(C(=O)O)cc1` [Compound 1-23, 4-[(Z)-2-[6-chloro-1-[3-(4-fluorophenyl)propyl]indol-3-yl]-1-cyano-vinyl]benzoic Acid], with more than 10 µM; and `N#C/C(=C\c1cn(CCCc2ccccc2)c2cc(Cl)ccc12)c1ccc(C(=O)O)cc1` [Compound 1-24, 4-[(Z)-2-[6-chloro-1-(3-phenylpropyl)indol-3-yl]-1-cyano-vinyl]benzoic Acid], with 0.5 to 10 µM. `Cn1cc(Cn2cc(/C=C(\C#N)c3ccc(C(=O)O)cc3)c3ccc(Cl)cc32)cn1` [Compound 1-25, 4-[(Z)-2-[6-chloro-1-[(1-methylpyrazol-4-yl)methyl]indol-3-yl]-1-cyano-vinyl]benzoic Acid] had a concentration for half-maximal inhibition (IC50) of 0.5 to 10 µM.

`COc1ccc(Cn2cc(/C=C(\C#N)c3ccc(C(=O)O)cc3)c3ccc(Cl)cc32)cn1` [Compound 1-26, 4-[(Z)-2-[6-chloro-1-[(6-methoxy-3-pyridyl)methyl]indol-3-yl]-1-cyano-vinyl]benzoic Acid] showed an IC50 not above 0.5 µM. Consider `N#C/C(=C\c1cn(Cc2ccc(C(F)(F)F)nc2)c2cc(Cl)ccc12)c1ccc(C(=O)O)cc1` [Compound 1-27, 4-[(Z)-2-[6-chloro-1-[[6-(trifluoromethyl)-3-pyridyl]methyl]indol-3-yl]-1-cyano-vinyl]benzoic Acid], for which the IC50 is not above 0.5 µM. Then `COc1ccc2c(/C=C(\C#N)c3ccc(C(=O)O)cc3)cn(Cc3ccc(OC)nc3)c2c1` [Compound 1-29, 4-[(Z)-1-cyano-2-[6-methoxy-1-[(6-methoxy-3-pyridyl)methyl]indol-3-yl]vinyl]benzoic Acid], with not above 0.5 µM. In the case of `N#C/C(=C\c1cn(Cc2ccc(OC(F)(F)F)cc2)c2cc(Cl)ccc12)c1ccc(C(=O)O)cc1` [Compound 1-45, (Z)-4-(2-(6-chloro-1-(4-(trifluoromethoxy)benzyl)-1H-indol-3-yl)-1-cyanovinyl)benzoic Acid] it was 0.5 to 10 µM; in that of `N#C/C(=C\c1cn(Cc2ccc(F)cc2C(F)(F)F)c2cc(Cl)ccc12)c1ccc(C(=O)O)cc1` [Compound 1-46, (Z)-4-(2-(6-chloro-1-(4-fluoro-2-(trifluoromethyl)benzyl)-1H-indol-3-yl)-1-cyanovinyl)benzoic Acid], more than 10 µM; in that of `N#C/C(=C\c1cn(Cc2ccc(OC(F)F)cc2F)c2cc(Cl)ccc12)c1ccc(C(=O)O)cc1` [Compound 1-47, (Z)-4-(2-(6-chloro-1-(4-(difluoromethoxy)-2-fluorobenzyl)-1H-indol-3-yl)-1-cyanovinyl)benzoic Acid], 0.5 to 10 µM. Then `N#C/C(=C\c1cn(Cc2ccc(OCC(F)(F)F)nc2)c2cc(Cl)ccc12)c1ccc(C(=O)O)cc1` [Compound 1-48, (Z)-4-(2-(6-chloro-1-((6-(2,2,2-trifluoroethoxy)pyridin-3-yl)methyl)-1H-indol-3-yl)-1-cyanovinyl)benzoic Acid], with more than 10 µM.

The values above are taken from patent US9714240B2 (PharmAkea, Inc., priority 2013, dated 2017).
